Read-outs that look alike come from different tables or passages of the source.
Experiments:
Test in all cases: biochemical
Design in all cases: In vitro kinase panel profiling, per cent remaining kinase activity at 10 uM
CK1γ1(h) = molecular target: T1, CK1γ1(h) (Homo sapiens, UniProt Q9HCP0); settings: atp_concentration=15, read-out: % of control remaining
T1 construct: gene CSNK1G1
From the text: (§1) We derisk potential for off-target activity by profiling the compound in a CEREP panel, a standard secondary pharmacology assessment, as well as a kinase panel to derisk a potential hinge-binding motif in our leads, and a PARP panel to derisk activity against human […]. Reassuringly, the compounds are selective, with the only off-targets being moderate human CHRM2 and KOR receptors activity associated with ASAP-0011198.

SRPK1(h) = SRPK1(h) (Homo sapiens, UniProt Q96SB4); settings: atp_concentration=10, read-out: % of control remaining
Sequence of SRPK1(h) (Q96SB4 whole entry): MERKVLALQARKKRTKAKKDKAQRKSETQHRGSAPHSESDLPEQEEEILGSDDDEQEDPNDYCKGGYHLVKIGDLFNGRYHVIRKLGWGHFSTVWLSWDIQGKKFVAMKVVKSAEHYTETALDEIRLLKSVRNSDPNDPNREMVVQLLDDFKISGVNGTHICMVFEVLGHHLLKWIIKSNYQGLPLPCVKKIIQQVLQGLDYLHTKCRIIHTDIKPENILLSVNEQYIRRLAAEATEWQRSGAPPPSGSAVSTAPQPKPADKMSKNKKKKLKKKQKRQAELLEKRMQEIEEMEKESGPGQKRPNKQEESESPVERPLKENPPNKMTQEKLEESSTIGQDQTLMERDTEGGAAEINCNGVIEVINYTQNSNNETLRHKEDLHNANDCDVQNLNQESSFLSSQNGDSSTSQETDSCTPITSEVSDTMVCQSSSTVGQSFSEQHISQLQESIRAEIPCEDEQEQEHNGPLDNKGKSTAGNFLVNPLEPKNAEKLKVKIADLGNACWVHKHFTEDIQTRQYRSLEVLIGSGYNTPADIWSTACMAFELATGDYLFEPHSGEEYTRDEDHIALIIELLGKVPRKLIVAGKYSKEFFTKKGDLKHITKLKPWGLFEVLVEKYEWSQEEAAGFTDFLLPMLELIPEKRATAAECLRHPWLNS
From the text: as §1

EphA5(h) = EphA5(h) (Homo sapiens, UniProt P54756); settings: atp_concentration=10, read-out: % of control remaining
Sequence of EphA5(h) (P54756 whole entry): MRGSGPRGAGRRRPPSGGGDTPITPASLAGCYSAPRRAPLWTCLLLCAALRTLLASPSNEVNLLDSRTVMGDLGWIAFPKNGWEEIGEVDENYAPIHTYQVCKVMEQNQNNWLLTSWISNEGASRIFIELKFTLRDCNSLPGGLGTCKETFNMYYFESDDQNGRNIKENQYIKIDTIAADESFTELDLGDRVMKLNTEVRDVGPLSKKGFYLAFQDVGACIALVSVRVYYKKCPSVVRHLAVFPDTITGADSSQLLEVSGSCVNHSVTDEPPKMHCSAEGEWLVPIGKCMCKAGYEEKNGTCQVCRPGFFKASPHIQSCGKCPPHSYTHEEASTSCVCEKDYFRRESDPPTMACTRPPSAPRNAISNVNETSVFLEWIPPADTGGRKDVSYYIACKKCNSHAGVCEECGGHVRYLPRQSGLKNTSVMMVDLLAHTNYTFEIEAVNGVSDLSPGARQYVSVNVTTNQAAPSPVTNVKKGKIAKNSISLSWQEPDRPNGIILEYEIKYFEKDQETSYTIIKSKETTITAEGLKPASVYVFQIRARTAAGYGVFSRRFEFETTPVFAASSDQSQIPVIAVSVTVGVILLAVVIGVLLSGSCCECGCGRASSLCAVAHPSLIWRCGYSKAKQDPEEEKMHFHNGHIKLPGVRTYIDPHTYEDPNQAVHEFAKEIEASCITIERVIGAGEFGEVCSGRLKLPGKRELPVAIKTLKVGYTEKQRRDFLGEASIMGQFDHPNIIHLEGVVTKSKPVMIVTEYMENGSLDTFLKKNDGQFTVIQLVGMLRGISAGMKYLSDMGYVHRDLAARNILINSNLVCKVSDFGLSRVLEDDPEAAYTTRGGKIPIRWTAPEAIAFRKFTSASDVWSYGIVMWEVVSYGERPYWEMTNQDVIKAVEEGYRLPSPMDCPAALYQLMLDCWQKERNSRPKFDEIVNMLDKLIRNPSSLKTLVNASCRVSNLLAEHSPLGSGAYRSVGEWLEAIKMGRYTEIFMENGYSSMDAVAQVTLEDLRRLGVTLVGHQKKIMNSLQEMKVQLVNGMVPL
From the text: as §1

PAK2(h) = PAK2(h) (Homo sapiens, UniProt Q13177); settings: atp_concentration=90, read-out: % of control remaining
Sequence of PAK2(h) (Q13177 whole entry): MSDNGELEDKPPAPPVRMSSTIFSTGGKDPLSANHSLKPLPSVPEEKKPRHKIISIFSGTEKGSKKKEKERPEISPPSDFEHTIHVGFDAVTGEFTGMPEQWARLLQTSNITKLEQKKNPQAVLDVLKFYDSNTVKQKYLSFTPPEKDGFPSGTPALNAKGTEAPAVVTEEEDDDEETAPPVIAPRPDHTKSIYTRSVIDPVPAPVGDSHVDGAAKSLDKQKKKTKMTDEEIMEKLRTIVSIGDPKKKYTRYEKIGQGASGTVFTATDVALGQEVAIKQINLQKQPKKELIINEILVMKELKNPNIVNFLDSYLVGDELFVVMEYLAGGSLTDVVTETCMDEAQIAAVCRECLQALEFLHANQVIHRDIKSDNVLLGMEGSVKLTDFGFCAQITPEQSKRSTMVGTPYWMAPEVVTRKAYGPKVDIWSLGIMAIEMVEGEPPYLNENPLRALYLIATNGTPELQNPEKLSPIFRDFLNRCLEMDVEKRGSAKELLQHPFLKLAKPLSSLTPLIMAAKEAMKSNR
From the text: as §1

MEK1(h) = molecular target: T2, MEK1(h) (Homo sapiens, UniProt Q02750); settings: atp_concentration=10, read-out: % of control remaining
T2 construct: gene MAP2K1
T2 sequence (Q02750 whole entry): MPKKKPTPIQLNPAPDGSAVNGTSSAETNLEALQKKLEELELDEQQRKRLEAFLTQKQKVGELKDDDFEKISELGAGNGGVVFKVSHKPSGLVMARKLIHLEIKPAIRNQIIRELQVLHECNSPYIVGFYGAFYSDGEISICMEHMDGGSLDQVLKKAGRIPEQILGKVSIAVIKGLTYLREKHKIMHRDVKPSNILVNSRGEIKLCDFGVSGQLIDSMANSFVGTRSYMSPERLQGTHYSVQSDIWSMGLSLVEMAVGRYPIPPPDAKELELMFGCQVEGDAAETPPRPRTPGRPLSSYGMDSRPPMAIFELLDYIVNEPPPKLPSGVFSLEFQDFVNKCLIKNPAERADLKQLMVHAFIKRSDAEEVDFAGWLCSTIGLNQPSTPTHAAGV
From the text: as §1

Pim-1(h) = molecular target: T3, Pim-1(h) (Homo sapiens, UniProt P11309); settings: atp_concentration=90, read-out: % of control remaining
T3 construct: gene PIM1
T3 sequence (P11309 whole entry): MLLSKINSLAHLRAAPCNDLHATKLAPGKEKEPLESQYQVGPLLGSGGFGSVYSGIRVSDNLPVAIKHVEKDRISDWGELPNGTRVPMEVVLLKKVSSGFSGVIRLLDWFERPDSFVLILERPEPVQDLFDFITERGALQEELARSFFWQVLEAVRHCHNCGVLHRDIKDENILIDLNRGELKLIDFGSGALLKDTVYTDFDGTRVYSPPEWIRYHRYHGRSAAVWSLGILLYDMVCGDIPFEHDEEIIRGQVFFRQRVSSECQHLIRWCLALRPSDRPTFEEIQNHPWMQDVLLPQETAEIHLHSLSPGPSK
From the text: as §1

PDGFRβ(h) = molecular target: T4, PDGFRβ(h) (Homo sapiens, UniProt P09619); settings: atp_concentration=200, read-out: % of control remaining
T4 construct: gene PDGFRB
T4 sequence (P09619 whole entry): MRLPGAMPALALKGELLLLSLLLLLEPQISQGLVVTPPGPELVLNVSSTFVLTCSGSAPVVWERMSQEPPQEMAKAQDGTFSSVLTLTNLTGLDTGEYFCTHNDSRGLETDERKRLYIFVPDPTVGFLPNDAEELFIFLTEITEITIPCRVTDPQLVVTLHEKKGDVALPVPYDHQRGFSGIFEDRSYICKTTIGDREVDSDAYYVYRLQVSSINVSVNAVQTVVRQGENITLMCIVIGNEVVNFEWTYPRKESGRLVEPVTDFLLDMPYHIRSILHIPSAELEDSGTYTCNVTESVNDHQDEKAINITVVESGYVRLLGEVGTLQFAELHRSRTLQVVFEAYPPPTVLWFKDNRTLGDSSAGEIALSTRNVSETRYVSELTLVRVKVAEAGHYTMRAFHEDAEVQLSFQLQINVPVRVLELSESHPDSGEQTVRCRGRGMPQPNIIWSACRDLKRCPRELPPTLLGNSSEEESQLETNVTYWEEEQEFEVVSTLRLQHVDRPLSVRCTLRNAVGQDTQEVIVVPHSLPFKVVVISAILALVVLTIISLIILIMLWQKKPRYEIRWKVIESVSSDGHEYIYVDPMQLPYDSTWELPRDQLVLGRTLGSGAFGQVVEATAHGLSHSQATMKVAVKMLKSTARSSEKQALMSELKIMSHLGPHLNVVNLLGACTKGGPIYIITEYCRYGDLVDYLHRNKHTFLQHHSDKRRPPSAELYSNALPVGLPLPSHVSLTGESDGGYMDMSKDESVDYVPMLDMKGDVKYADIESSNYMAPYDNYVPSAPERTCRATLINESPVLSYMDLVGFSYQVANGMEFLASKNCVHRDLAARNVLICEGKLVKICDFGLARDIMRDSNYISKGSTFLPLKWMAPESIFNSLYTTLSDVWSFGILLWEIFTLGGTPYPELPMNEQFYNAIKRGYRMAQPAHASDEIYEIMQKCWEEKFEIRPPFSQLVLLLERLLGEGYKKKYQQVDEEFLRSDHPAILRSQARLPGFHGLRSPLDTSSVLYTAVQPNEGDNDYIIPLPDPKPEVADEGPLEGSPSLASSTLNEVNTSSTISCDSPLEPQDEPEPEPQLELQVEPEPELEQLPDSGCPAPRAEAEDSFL
From the text: as §1

CK2α2(h) = molecular target: T5, CK2α2(h) (Homo sapiens, UniProt P19784); settings: atp_concentration=10, read-out: % of control remaining
T5 construct: gene CSNK2A2
T5 sequence (P19784 whole entry): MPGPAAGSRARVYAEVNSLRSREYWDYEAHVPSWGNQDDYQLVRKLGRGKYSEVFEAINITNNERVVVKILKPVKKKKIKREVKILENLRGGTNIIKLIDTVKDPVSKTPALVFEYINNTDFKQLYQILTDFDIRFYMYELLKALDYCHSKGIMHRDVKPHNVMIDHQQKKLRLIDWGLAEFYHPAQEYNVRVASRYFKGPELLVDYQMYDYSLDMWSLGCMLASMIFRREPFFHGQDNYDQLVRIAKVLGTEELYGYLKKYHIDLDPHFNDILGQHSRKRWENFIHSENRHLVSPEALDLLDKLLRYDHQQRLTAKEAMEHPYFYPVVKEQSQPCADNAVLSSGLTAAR
From the text: as §1

Aurora-A(h) = molecular target: T6, Aurora-A(h) (Homo sapiens, UniProt O14965); settings: atp_concentration=15, read-out: % of control remaining
T6 construct: gene AURKA
T6 sequence (O14965 1-403): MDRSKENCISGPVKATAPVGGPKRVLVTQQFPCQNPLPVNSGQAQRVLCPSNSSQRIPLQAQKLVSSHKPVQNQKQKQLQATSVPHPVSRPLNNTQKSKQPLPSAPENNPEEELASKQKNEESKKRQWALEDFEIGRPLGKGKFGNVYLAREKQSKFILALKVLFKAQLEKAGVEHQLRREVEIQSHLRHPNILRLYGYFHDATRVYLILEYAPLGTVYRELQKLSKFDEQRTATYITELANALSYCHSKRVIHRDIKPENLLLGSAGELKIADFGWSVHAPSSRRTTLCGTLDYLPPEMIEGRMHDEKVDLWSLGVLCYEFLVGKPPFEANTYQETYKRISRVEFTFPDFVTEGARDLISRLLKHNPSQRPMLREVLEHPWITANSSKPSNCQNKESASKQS
From the text: as §1

IRAK4(h) = molecular target: T7, IRAK4(h) (Homo sapiens, UniProt Q9NWZ3); settings: atp_concentration=200, read-out: % of control remaining
T7 sequence (Q9NWZ3 1-460): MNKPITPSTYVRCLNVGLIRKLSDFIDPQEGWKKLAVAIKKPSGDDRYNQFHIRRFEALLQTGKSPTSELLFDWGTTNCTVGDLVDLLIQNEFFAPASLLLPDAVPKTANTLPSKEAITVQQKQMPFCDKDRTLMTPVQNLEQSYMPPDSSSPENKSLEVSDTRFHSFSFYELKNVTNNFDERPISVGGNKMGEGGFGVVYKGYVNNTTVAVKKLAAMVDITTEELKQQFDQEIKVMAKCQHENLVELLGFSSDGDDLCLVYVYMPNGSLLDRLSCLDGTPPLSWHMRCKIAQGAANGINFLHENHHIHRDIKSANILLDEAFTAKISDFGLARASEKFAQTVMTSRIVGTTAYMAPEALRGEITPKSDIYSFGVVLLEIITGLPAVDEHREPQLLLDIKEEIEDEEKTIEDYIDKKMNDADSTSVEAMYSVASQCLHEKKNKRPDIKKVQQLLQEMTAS
From the text: as §1

PKG1α(h) = molecular target: T8, PKG1α(h) (Homo sapiens, UniProt Q13976); settings: atp_concentration=90, read-out: % of control remaining
T8 construct: gene PRKG1; isoform alpha
T8 sequence (Q13976 1-671): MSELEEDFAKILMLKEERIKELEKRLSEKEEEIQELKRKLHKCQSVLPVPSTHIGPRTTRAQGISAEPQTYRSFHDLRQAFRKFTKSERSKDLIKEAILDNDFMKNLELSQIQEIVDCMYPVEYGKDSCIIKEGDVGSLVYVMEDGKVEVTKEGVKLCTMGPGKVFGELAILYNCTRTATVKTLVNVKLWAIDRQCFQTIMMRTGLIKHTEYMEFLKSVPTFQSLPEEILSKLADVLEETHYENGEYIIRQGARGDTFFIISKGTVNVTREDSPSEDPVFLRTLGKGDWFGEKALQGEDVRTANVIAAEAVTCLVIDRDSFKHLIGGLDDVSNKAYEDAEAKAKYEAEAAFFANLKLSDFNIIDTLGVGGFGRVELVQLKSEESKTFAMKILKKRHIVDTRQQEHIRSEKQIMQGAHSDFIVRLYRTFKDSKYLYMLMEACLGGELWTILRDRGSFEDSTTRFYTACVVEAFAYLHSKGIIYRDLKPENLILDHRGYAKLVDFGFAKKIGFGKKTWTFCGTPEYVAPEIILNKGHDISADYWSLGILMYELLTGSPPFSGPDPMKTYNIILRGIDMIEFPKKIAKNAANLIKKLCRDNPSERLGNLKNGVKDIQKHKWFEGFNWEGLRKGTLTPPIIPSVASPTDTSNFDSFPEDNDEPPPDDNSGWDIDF
From the text: as §1

T1 sequence (Q9HCP0 whole entry): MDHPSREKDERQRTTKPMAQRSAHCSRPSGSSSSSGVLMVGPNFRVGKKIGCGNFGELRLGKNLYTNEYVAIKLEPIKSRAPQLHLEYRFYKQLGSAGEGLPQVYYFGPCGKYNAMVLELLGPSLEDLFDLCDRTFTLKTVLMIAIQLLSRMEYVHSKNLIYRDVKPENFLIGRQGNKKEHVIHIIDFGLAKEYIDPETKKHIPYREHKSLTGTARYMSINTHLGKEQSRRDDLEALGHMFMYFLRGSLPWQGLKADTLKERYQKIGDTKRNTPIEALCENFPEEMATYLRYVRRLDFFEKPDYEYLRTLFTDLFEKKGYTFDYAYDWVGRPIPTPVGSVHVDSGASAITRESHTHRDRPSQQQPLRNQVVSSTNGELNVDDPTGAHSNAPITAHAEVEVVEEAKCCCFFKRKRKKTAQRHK

Cn1ncc(-c2cc3c(N[C@@H](c4ccc5c(n4)OCCO5)C(C)(C)C)ncnc3[nH]2)c1C#N [ASAP-0011221]
remaining activity at 10 µM (CK1γ1(h); batch_name=ASAP-0011221-002): 94% | remaining activity at 10 µM (SRPK1(h); batch_name=ASAP-0011221-002): 117% | remaining activity at 10 µM (EphA5(h); batch_name=ASAP-0011221-002): 102% | remaining activity at 10 µM (PAK2(h); batch_name=ASAP-0011221-002): 111% | remaining activity at 10 µM (MEK1(h); batch_name=ASAP-0011221-002): 98% | remaining activity at 10 µM (Pim-1(h); batch_name=ASAP-0011221-002): 107% | remaining activity at 10 µM (PDGFRβ(h); batch_name=ASAP-0011221-002): 100% | remaining activity at 10 µM (CK2α2(h); batch_name=ASAP-0011221-002): 92% | remaining activity at 10 µM (Aurora-A(h); batch_name=ASAP-0011221-002): 95% | remaining activity at 10 µM (IRAK4(h); batch_name=ASAP-0011221-002): 132% | remaining activity at 10 µM (PKG1α(h); batch_name=ASAP-0011221-002): 127%

Cc1nn(C)cc1-c1cc2c(NC(c3ccc4c(c3)S(=O)(=O)CCC4)C(C)C)ncnc2[nH]1 (centres unmarked) [ASAP-0011446]
remaining activity at 10 µM (CK1γ1(h); batch_name=ASAP-0011446-002): 99% | remaining activity at 10 µM (SRPK1(h); batch_name=ASAP-0011446-002): 104% | remaining activity at 10 µM (EphA5(h); batch_name=ASAP-0011446-002): 74% | remaining activity at 10 µM (PAK2(h); batch_name=ASAP-0011446-002): 100% | remaining activity at 10 µM (MEK1(h); batch_name=ASAP-0011446-002): 99% | remaining activity at 10 µM (Pim-1(h); batch_name=ASAP-0011446-002): 95% | remaining activity at 10 µM (PDGFRβ(h); batch_name=ASAP-0011446-002): 97% | remaining activity at 10 µM (CK2α2(h); batch_name=ASAP-0011446-002): 92% | remaining activity at 10 µM (Aurora-A(h); batch_name=ASAP-0011446-002): 55% | remaining activity at 10 µM (IRAK4(h); batch_name=ASAP-0011446-002): 107% | remaining activity at 10 µM (PKG1α(h); batch_name=ASAP-0011446-002): 128%

C[C@H](C(=O)O)[C@@H](NC(=O)c1ncnc2[nH]ccc12)c1ccc(Br)cc1 [ASAP-0014722]
remaining activity at 10 µM (CK1γ1(h); batch_name=ASAP-0014722-002): 92% | remaining activity at 10 µM (SRPK1(h); batch_name=ASAP-0014722-002): 97% | remaining activity at 10 µM (EphA5(h); batch_name=ASAP-0014722-002): 99% | remaining activity at 10 µM (PAK2(h); batch_name=ASAP-0014722-002): 95% | remaining activity at 10 µM (MEK1(h); batch_name=ASAP-0014722-002): 89% | remaining activity at 10 µM (Pim-1(h); batch_name=ASAP-0014722-002): 95% | remaining activity at 10 µM (PDGFRβ(h); batch_name=ASAP-0014722-002): 110% | remaining activity at 10 µM (CK2α2(h); batch_name=ASAP-0014722-002): 91% | remaining activity at 10 µM (Aurora-A(h); batch_name=ASAP-0014722-002): 72% | remaining activity at 10 µM (IRAK4(h); batch_name=ASAP-0014722-002): 106% | remaining activity at 10 µM (PKG1α(h); batch_name=ASAP-0014722-002): 118%

COc1ccc([C@H](Cc2nnn[nH]2)NC(=O)c2ncnc3[nH]ccc23)cc1 [ASAP-0015381]
remaining activity at 10 µM (CK1γ1(h); batch_name=ASAP-0015381-001): 94% | remaining activity at 10 µM (SRPK1(h); batch_name=ASAP-0015381-001): 103% | remaining activity at 10 µM (EphA5(h); batch_name=ASAP-0015381-001): 102% | remaining activity at 10 µM (PAK2(h); batch_name=ASAP-0015381-001): 107% | remaining activity at 10 µM (MEK1(h); batch_name=ASAP-0015381-001): 100% | remaining activity at 10 µM (Pim-1(h); batch_name=ASAP-0015381-001): 99% | remaining activity at 10 µM (PDGFRβ(h); batch_name=ASAP-0015381-001): 103% | remaining activity at 10 µM (CK2α2(h); batch_name=ASAP-0015381-001): 93% | remaining activity at 10 µM (Aurora-A(h); batch_name=ASAP-0015381-001): 84% | remaining activity at 10 µM (IRAK4(h); batch_name=ASAP-0015381-001): 109% | remaining activity at 10 µM (PKG1α(h); batch_name=ASAP-0015381-001): 121%
